Results as given in US20100197962A1 (priority 2005, published 2010).
“And” between values parts separate entries of the source, which are not always exact repeats. Identical values can stand only once.

What was measured:
[1] = tested on: locomotor hyperactivity induced by cocaine and morphine; assay: Locomotor hyperactivity (hypermotility) induced by cocaine and morphine, Videotrack total distance; assay type: in vivo, rats; conditions: for effect on the spontaneous motility of the animal: alone, neboglamine 30 mg/kg, glycine 300 mg/kg i.p.
Method: The motor activity was measured with a video camera and recorded using the Videotrack 512 system as described by Garofalo (J. Pharm. Pharmacol. 48: 1290-1297, 1996).
The locomotor activity was recorded for 15 minutes and the total distance covered (in cm) by the animal was recorded by the computer connected to the video camera.

[2] = tested on: tolerance and abstinence crisis induced by chronic treatment with diazepam; assay: Elevated zero maze: tolerance and abstinence crisis induced by chronic treatment with diazepam; assay type: in vivo, rats
Method: The experiment was performed in an elevated zero maze in accordance with the procedure described by Shepard et al. (Psychopharmacology 116: 56-64, 1994) with minor changes.
The rat, placed in one of the closed quadrants, had free access to all 4 of the quadrants (2 open and 2 closed) for a period of 5 minutes. A compound with anxiolytic activity produces a percentage increase in the time spent in the free quadrants.
In the acute studies, the compounds were administered via the s.c. route 30 minutes before the experiment, whereas in the tolerance and “withdrawal” experiments, they were administered via the s.c. route twice a day for 7 days and then retested 40 hours after the end of the chronic treatment.

[3] = tested on: memory and learning; conditions: various animal models; Garofalo et al. 1996; cited from earlier work
[4] = tested on: inverse tolerance induced by chronic treatment with morphine; assay: Inverse tolerance (increased sensitivity) induced by chronic treatment with morphine, locomotor activity
[5] = tested on: locomotor hyperactivity, tolerance and dependency induced by morphine; conditions: mice; Shin et al. 2003; cited from earlier work
[6] = drug = morphine 10 mg/kg s.c., neboglamine 30 or glycine 300 mg/kg i.p. 30 min before
[7] = neboglamine 30 or glycine 300 mg/kg i.p. 30 min before morphine 10 mg/kg s.c.
[8] = neboglamine 30 or glycine 300 mg/kg i.p. 30 min before morphine 10 mg/kg s.c., recorded 15 min
[9] = substance alone with physiological saline, neboglamine 30 or glycine 300 mg/kg i.p., cocaine 20 or morphine 10 mg/kg s.c., recorded 15 min
[10] = acute, s.c. 30 min before, diazepam 5 mg/kg, neboglamine 30 mg/kg
[11] = acute, s.c. 30 min before, diazepam 5 mg/kg, neboglamine 30 mg/kg, 5 min test
[12] = neboglamine 30 mg/kg s.c. x 2 (x7 days) + 30 co-administered with chronic diazepam (D-C) + 5 (D), tolerance
[13] = withdrawal: diazepam and neboglamine for 7 days, retested 40 hours later with physiological saline
[14] = neboglamine 30 mg/kg i.p. 30 min before morphine 10 mg/kg s.c., x 7 days
[15] = chronic morphine 10 mg/kg s.c. x 7 days
[16] = withdrawal (D-W): diazepam for 7 days, retested 40 hours later with physiological saline

Compound: (S)-4-amino-N-(4,4-dimethylcyclohexyl)glutamic acid [Neboglamine]
- % increase vs. physiological saline ([1]; 30 mg/kg i.p. 30 min before cocaine 20 mg/kg s.c.): 9.1%
- Total distance (cm) ([1]; 30 mg/kg i.p. 30 min before cocaine 20 mg/kg s.c., recorded 15 min): 3600 cm
- effect on the spontaneous motility of the animal [1]: do not significantly alter
- % inhibition vs. the drug (D) ([1]; drug = cocaine 20 mg/kg s.c., 30 mg/kg i.p. 30 min before): 88%
- % inhibition vs. the drug (D) ([1]; drug = cocaine 20 mg/kg s.c., 30 mg/kg i.p. 30 min before, listed as N): 88.0^(1) %
- % inhibition vs. the drug (D) [1, 6]: 77.5%
- % inhibition vs. the drug (D) ([1]; drug = morphine 10 mg/kg s.c., neboglamine 30 or glycine 300 mg/kg i.p. 30 min before, listed as N): 77.5^(1) %
- % increase vs. physiological saline [1, 7]: 13.6%
- Total distance (cm) [1, 8]: 3750 cm
- Total distance (cm) [1, 9]: 3150 cm
- % effect vs. controls (saline) [2, 10]: 127%
- Time (seconds) spent in the open quadrants [2, 11]: 51 s
- % effect vs. controls (saline) ([2]; acute, s.c. 30 min before, diazepam 5 mg/kg, neboglamine 30 mg/kg, listed as neboglamine): 127.0%
- % effect vs. controls (saline) [2, 12]: 192.5%
- Time (seconds) spent in the open quadrants [2, 12]: 77 s
- % effect vs. controls (saline) [2, 13]: 110.0%
- Time (seconds) spent in the open quadrants [2, 13]: 44 s
- % effect vs. controls (saline) ([2]; withdrawal: diazepam and neboglamine for 7 days, retested 40 hours later with physiological saline, listed as neboglamine): 110%
- promoting memory and learning [3]: advantageous properties of promoting memory and learning
- % increase vs. physiological saline [4, 14]: 37.5%
- % inhibition of the hypersensitivity of morphine [4, 14]: 70.8% and 70.8^(1) %
- Total distance (cm) [4, 14]: 3850 cm

Compound: CN1CC[C@]23c4c5ccc(O)c4O[C@H]2[C@@H](O)C=C[C@H]3[C@H]1C5 [Morphine, morphine, reference compound]
- % increase vs. physiological saline [1, 9]: 60.6%
- Total distance (cm) [1, 9]: 5300 cm
- % increase vs. physiological saline [4, 15]: 128.6%
- Total distance (cm) [4, 15]: 6400 cm
- increase in the motor activity by chronic treatment compared with the acute effect of the drug ([4]; chronic vs acute morphine 10 mg/kg s.c.): about 50%

Compound: CN1C(=O)CN=C(c2ccccc2)c2cc(Cl)ccc21 [diazepam, reference compound]
- % effect vs. controls (saline) [2, 10]: 262.5%
- Time (seconds) spent in the open quadrants [2, 11]: 105 s
- Time (seconds) spent in the open quadrants ([2]; chronic diazepam (D-C) 5 mg/kg s.c. x 2 (x7 days) + 5 (D), tolerance): 58 s
- % effect vs. controls (saline) ([2]; chronic diazepam (D-C) 5 mg/kg s.c. x 2 (x7 days) + 5 (D), tolerance, 5 mg/kg): 145%
- % effect vs. controls (saline) [2, 16]: 37.5%
- Time (seconds) spent in the open quadrants [2, 16]: 15 s

Compound: NCC(=O)O [Glycine, glycine, reference compound]
- effect on the spontaneous motility of the animal [1]: do not significantly alter
- % inhibition vs. the drug (D) [1, 6]: 52.5%
- % inhibition vs. the drug (D) ([1]; drug = morphine 10 mg/kg s.c., neboglamine 30 or glycine 300 mg/kg i.p. 30 min before, listed as G): 52.5^(2) %
- % increase vs. physiological saline [1, 7]: 28.8%
- Total distance (cm) [1, 8]: 4250 cm
- Total distance (cm) [1, 9]: 2900 cm
- inhibition of morphine-induced locomotor hyperactivity, tolerance and dependency [5]: capable of inhibiting the locomotor hyperactivity, tolerance and dependency induced by morphine

Compound: COC(=O)[C@H]1[C@@H](OC(=O)c2ccccc2)C[C@@H]2CC[C@H]1N2C [Cocaine, cocaine, reference compound]
- % increase vs. physiological saline [1, 9]: 75.7%
- Total distance (cm) [1, 9]: 5800 cm
